What all share (format): cell-based
Experiment [1] has as its target T1, NPFFR1-chimera (Q37^NtL/I293^6.58S/T307^7.31N) (Homo sapiens, UniProt Q9GZQ6, I293S/Q37L/T307N).
T1 construct: expressed in transfected cells; host or cells: HEK293T
As to the kind of experiment: GloSensor forskolin-stimulated cAMP assay, NPFFR1 triple mutant (chimera Q37NtL/I2936.58S/T3077.31N). The following applies: HEK293T, 0.5 μM forskolin, three independent experiments. Here is the method:
(§1) Figure 4 RF-amide ligand selectivity of NPFFR2 and NPFFR1. (A) Sequence alignment between human NPFFs and RFRPs, the endogenous ligands of NPFFRs, which share PXRF-NH2 motif at their C-terminus (shown in green letters). Key residues at the fifth and sixth positions from the C-terminus, are highlighted in bold. […] (B) The concentration-dependent response of various agonists on NPFFR1 was measured using a forskolin-stimulated cAMP assay. Data points represent the mean values from three independent experiments (each with technical triplicate), with error bars indicating SEM. Raw data were normalized to the vehicle-treated (0%) and 0.5 μM forskolin-treated (100%) responses. (C) Structural comparison between the binding modes of hNPSF to NPFFR2 and GnIH to NPFFR1. An AlphaFold2 prediction model of the GnIH–NPFFR1 complex was generated using the hNPSF–NPFFR2 complex structure as a template. The hydrophobicity of NPFFRs is shown with surface representation, where purple indicates hydrophilic regions and bronze indicates hydrophobic regions. […] (D) The cAMP response to the ligands hNPSF and GnIH was measured for both wild-type NPFFR1 and a mutant form of NPFFR1 using a forskolin-stimulated cAMP assay. […] Symbols represent mean values from three independent experiments, each conducted in technical triplicates, with error bars indicating SEM. Responses were normalized to vehicle-treated controls (0%) and 0.5 μM forskolin-treated controls (100%). Source data are available online for this figure.
To further validate whether these specific residues in NPFFR1 affect ligand selectivity, we generated a triple mutant of NPFFR1, in which residues Q37^Nt, I293^6.58, and T307^7.31 of NPFFR1 were replaced by the corresponding NPFFR2 residues, Leu, Ser, and Asn, respectively (Appendix Fig. S10). […]
HEK293T cells were seeded at a density of 6 × 10^5 cells per well in a six-well cell culture plate (SPL) and co-transfected with expression plasmids encoding GloSensor™ and each NPFFR construct, using 1 µg to 4 µg of DNA per well according to the Lipofectamine™ 2000 Transfection Reagent (Invitrogen) protocol. […] Luminescence signals were measured using a Mithras LB940 instrument (Berthold) with a measurement time of 1 s per well.
Data from the GloSensor^TM cAMP signaling assays were analyzed using GraphPad Prism with a three-parameter logistic model to fit concentration-response curves for both wild-type (WT) and mutant receptors. Mutant expression levels and DNA amounts were adjusted to match WT conditions. ΔpEC50 values were calculated by subtracting the log EC50 of the WT receptor from that of each mutant. […] Statistical significance was assessed using one-way ANOVA, followed by Dunnett’s tests comparisons to the WT receptor. […]

The next experiment concerns the target T2, human NPFFR2 (Homo sapiens, UniProt Q9Y5X5).
T2 construct: expressed in transfected cells; host or cells: HEK293T (pcDNA3.1 NPFFR2)
Put plainly: GloSensor forskolin-stimulated cAMP assay, NPFFR2 wild-type. The following applies: HEK293T, 0.5 μM forskolin; for Emax: HEK-293T. Here is the method: Figure 1 Structural analysis and downstream signaling of NPFFR2. (A) The concentration-dependent response of various agonists on NPFFR2 is measured using a forskolin-stimulated cAMP assay. Data points represent mean values from three independent experiments (each with technical triplicate), with error bars indicating SEM (standard error of the mean). Raw data were normalized to the vehicle-treated (0%) and 0.5 μM forskolin-treated (100%) responses. […] (C) The extracellular loop 2 (ECL2, pink) and N-terminus (Nt, blue) of NPFFR2 are depicted using a cartoon model. […] Source data are available online for this figure.
(§2) HEK293T cells were seeded at a density of 6 × 10^5 cells per well in a six-well cell culture plate (SPL) and co-transfected with expression plasmids encoding GloSensor™ and each NPFFR construct, using 1 µg to 4 µg of DNA per well according to the Lipofectamine™ 2000 Transfection Reagent (Invitrogen) protocol. After 48 h of incubation under standard conditions (37 °C, 5% CO2), the cells were detached using Accutase solution (Sigma-Aldrich) and washed with PBS. The cells were then pelleted by centrifugation, resuspended in CO2-independent medium (Gibco) supplemented with Firefly D-Luciferin (0.5 mg/ml, NanoLight), and distributed into a 96-well white plate (SPL). After a 2-hour incubation, serially diluted ligands and 0.5 μM forskolin were added to each well to detect ligand-induced signaling. Luminescence signals were measured using a Mithras LB940 instrument (Berthold) with a measurement time of 1 s per well.
(§3) Data from the GloSensor^TM cAMP signaling assays were analyzed using GraphPad Prism with a three-parameter logistic model to fit concentration-response curves for both wild-type (WT) and mutant receptors. Mutant expression levels and DNA amounts were adjusted to match WT conditions. ΔpEC50 values were calculated by subtracting the log EC50 of the WT receptor from that of each mutant. Results are presented as mean ± SEM from three independent biological replicates, each performed in duplicate or more. Error bars represent the SEM. Statistical significance was assessed using one-way ANOVA, followed by Dunnett’s tests comparisons to the WT receptor. Significance levels were reported as follows: ns (not significant, P > 0.05); *P < 0.05; **P < 0.01; ***P < 0.001.
In general terms: cAMP levels reflect the balance of adenylyl cyclase and phosphodiesterase activity.

The target of the next experiment is T3, human NPFFR1 (Homo sapiens, UniProt Q9GZQ6).
T3 construct: expressed in transfected cells; host or cells: HEK293T (pcDNA3.1 NPFFR1)
Put plainly: GloSensor forskolin-stimulated cAMP assay, NPFFR1 wild-type. The following applies: NPFFR1 wild-type, HEK293T, 0.5 μM forskolin, three independent experiments. Here is the method:
as §1, with “(A) Sequence alignment between human NPFFs and RFRPs, the endogenous ligands of NPFFRs, which share PXRF-NH2 motif at their C-terminus (shown in green letters).” left out
as §2, §3

[2] abbreviates: NPFFR2 wild type (50% DNA treated), three independent experiments.

The results in this text go back to PMC12069643, “Structural insights into the selective recognition of RF-amide peptides by neuropeptide FF receptor 2” (EMBO Reports, 2025).

T2 sequence (Q9Y5X5 103-522): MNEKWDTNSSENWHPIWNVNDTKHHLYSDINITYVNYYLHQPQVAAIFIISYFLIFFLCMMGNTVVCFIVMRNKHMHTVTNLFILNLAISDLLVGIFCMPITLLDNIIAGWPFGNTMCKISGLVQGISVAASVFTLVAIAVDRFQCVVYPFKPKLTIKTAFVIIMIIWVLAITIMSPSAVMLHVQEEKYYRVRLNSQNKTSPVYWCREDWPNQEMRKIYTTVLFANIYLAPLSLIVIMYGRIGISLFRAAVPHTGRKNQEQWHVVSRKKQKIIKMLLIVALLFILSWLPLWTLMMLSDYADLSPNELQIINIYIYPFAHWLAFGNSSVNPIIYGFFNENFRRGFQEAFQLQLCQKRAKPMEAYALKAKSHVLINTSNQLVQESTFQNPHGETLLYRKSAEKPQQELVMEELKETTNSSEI
T1 sequence (Q9GZQ6 whole entry Q37L/I293S/T307N): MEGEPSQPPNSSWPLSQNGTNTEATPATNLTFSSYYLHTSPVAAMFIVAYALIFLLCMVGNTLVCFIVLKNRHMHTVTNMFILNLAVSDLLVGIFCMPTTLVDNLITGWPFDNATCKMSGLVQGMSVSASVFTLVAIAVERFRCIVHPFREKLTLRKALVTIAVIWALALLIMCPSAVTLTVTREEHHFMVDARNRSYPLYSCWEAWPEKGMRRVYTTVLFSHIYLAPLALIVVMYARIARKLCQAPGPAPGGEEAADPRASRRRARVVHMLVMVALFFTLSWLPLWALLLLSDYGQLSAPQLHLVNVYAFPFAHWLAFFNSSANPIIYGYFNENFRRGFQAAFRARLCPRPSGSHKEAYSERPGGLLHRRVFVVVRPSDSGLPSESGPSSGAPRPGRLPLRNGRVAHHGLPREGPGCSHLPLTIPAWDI
T3 sequence (Q9GZQ6 whole entry): as the sequence (Q9GZQ6 whole entry Q37L/I293S/T307N) above, with L37Q, S293I, N307T counted along it

As for `CC(C)C[C@H](NC(=O)[C@H](Cc1ccccc1)NC(=O)[C@H](C)NC(=O)[C@H](CCC(N)=O)NC(=O)[C@@H](N)CO)C(=O)N[C@@H](Cc1ccccc1)C(=O)N[C@@H](CCC(N)=O)C(=O)N1CCC[C@H]1C(=O)N[C@@H](CCC(N)=O)C(=O)N[C@@H](CCCNC(=N)N)C(=O)N[C@@H](Cc1ccccc1)C(N)=O` [hNPSF], the EC50 in experiment [1] was 31.6 nM; at human NPFFR2 (setting [2]), 6.31 nM; on human NPFFR2 (NPFFR2 wild-type (100% DNA treated for hNPSF), three independent experiments) it was 3.16 nM; on human NPFFR1 (read-out: pEC50 ± SEM (converted)) it was 79.4 nM. Moreover, the Emax (as a rule, the maximal effect, on the per cent scale that the assay sets) turned out to be 78 ± 2% in experiment [1] (HEK-293T); 56 ± 2% at human NPFFR2 (setting [2]); 77 ± 3% on human NPFFR2 (NPFFR2 wild-type (100% DNA treated for hNPSF), mean of three independent experiments ± SEM); 83 ± 1% on human NPFFR1 (HEK-293T, read-out: Emax ± SEM).
